3 compounds from patent US4647693A, “Antibiotics DO-248-A and B and process for preparing the same” (Shionogi & Co., Ltd., priority 1984, dated 1987) can be followed below.

For test [1], the system named is M. tuberculosis R-15 (Rifanpicin resistant strain). Briefly: MIC, two-fold dilution, Dubos Tween albumin liquid medium. It is filed as cell-based. The following applies: Mycobacterium tuberculosis, 336 h, read-out: minimal inhibitory concentration (MIC).
The subject of test [2] is M. tuberculosis R-18 (Kanamycin and rifanpicin resistant strain). Described as above. It is filed as cell-based. The following applies: Mycobacterium tuberculosis, 336 h, read-out: minimal inhibitory concentration (MIC).

In brackets after ≈: the same amount, converted by molar mass. Bounds are passed on as bounds.

Take `CC(C)c1c(O)cc(C(NC(=N)N)C(=O)NCC(=O)O)cc1O` (stereo not drawn) [DO-248-A, N-(α-guanidino-3,5-dihydroxy-4-isopropylphenylacetyl)glycine]: the MIC came out at 0.1 µg/mL (≈ 0.308 µM) in test [1] and 0.025 µg/mL (≈ 0.0771 µM) in test [2].

With `NC[C@H]1O[C@H](O[C@H]2[C@H](O)[C@@H](O[C@H]3O[C@H](CO)[C@@H](O)[C@H](N)[C@H]3O)[C@H](N)C[C@@H]2N)[C@H](O)[C@@H](O)[C@@H]1O` [KM, kanamycin], the MIC in test [1] was below 0.001 µg/mL; in test [2], above 25 µg/mL.

Turning to `CO[C@H]1/C=C/O[C@@]2(C)Oc3c(C)c(O)c4c(O)c(c(/C=N/N5CCN(C)CC5)c(O)c4c3C2=O)NC(=O)/C(C)=C\C=C\[C@H](C)[C@H](O)[C@@H](C)[C@@H](O)[C@@H](C)[C@H](OC(C)=O)[C@@H]1C` [RFP, rifampicin], the MIC in test [1] and in test [2] was above 25 µg/mL throughout.
